{"source": "PubChem BioAssay AID1963965", "about": "(Molecular Pharmacology Branch, DTP, NCI, 2024);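 further: spheroids exposed to compounds for seven days before viability read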;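 on viability, T/C: luminescence used as a proxy for viable cell amount; percent viability relative to DMSO vehicle control as 100%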", "system": "996289-038-R-J1-PDC spheroid viability", "assay": "Anticancer human tumor 996289-038-R-J1-PDC patient-derived colon adenocarcinoma cell line growth inhibition [PI3K]", "conditions": "spheroids with HUVEC and MSC; for IC50: curve of first compound; for viability, T/C: stronger effect = lower value", "how_it_was_run": "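Three cell types, namely tumor cells, endothelial cells and mesenchymal stem cells, formed each spheroid. Combinations with four PI3K inhibitors were screened at clinically achievable concentrations decreasing by half-log, and spheroid viability was recorded.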", "key": {"[1]": {"conditions": "second compound 0.0316 µM, first compound 0.0316 µM"}, "[2]": {"conditions": "second compound 0.0316 µM, first compound 0.1 µM"}, "[3]": {"conditions": "second compound 0.1 µM, first compound 0.0316 µM"}, "[4]": {"conditions": "second compound 0.1 µM, first compound 0.1 µM"}, "[5]": {"conditions": "second compound 0.316 µM, first compound 0.0316 µM"}, "[6]": {"conditions": "second compound 0.316 µM, first compound 0.1 µM"}, "[7]": {"conditions": "second compound 1 µM, first compound 0.0316 µM"}, "[8]": {"conditions": "second compound 1 µM, first compound 0.1 µM"}, "[9]": {"conditions": "second compound 3.16 µM, first compound 0.0316 µM"}, "[10]": {"conditions": "second compound 3.16 µM, first compound 0.1 µM"}, "[11]": {"conditions": "second compound 10 µM, first compound 0.0316 µM"}, "[12]": {"conditions": "second compound 10 µM, first compound 0.1 µM"}}}
{"smiles": "CC(C)NCC(C(=O)N1CCN(c2ncnc3c2C(C)CC3O)CC1)c1ccc(Cl)cc1", "note": "(centres undefined) + CC(Nc1ncnc2nc[nH]c12)c1cc2cccc(Cl)c2c(=O)n1-c1ccccc1", "values": [{"measurement": "IC50", "setting": "second compound 0.0316 µM", "result": "> 10", "unit": "µM"}, {"measurement": "IC50", "setting": "second compound 0.1 µM", "result": "> 10", "unit": "µM"}, {"measurement": "IC50", "setting": "second compound 0.316 µM", "result": "> 10", "unit": "µM"}, {"measurement": "IC50", "setting": "second compound 1 µM", "result": "> 10", "unit": "µM"}, {"measurement": "IC50", "setting": "second compound 3.16 µM", "result": "> 10", "unit": "µM"}, {"measurement": "IC50", "setting": "second compound 10 µM", "result": "> 10", "unit": "µM"}, {"measurement": "viability, T/C", "setting": "[1]", "result": 86.1, "unit": "%"}, {"measurement": "viability, T/C", "setting": "[2]", "result": 80.3, "unit": "%"}, {"measurement": "viability, T/C", "setting": "second compound 0.0316 µM, first compound 0.316 µM", "result": 100, "unit": "%"}, {"measurement": "viability, T/C", "setting": "second compound 0.0316 µM, first compound 1 µM", "result": 94.1, "unit": "%"}, {"measurement": "viability, T/C", "setting": "second compound 0.0316 µM, first compound 3.16 µM", "result": 87.4, "unit": "%"}, {"measurement": "viability, T/C", "setting": "second compound 0.0316 µM, first compound 10 µM", "result": 75.1, "unit": "%"}, {"measurement": "viability, T/C", "setting": "[3]", "result": 96.5, "unit": "%"}, {"measurement": "viability, T/C", "setting": "[4]", "result": 96.8, "unit": "%"}, {"measurement": "viability, T/C", "setting": "second compound 0.1 µM, first compound 0.316 µM", "result": 89.9, "unit": "%"}, {"measurement": "viability, T/C", "setting": "second compound 0.1 µM, first compound 1 µM", "result": 94.7, "unit": "%"}, {"measurement": "viability, T/C", "setting": "second compound 0.1 µM, first compound 3.16 µM", "result": 87.1, "unit": "%"}, {"measurement": "viability, T/C", "setting": "second compound 0.1 µM, first compound 10 µM", "result": 69.4, "unit": "%"}, {"measurement": "viability, T/C", "setting": "[5]", "result": 94.9, "unit": "%"}, {"measurement": "viability, T/C", "setting": "[6]", "result": 93.8, "unit": "%"}, {"measurement": "viability, T/C", "setting": "second compound 0.316 µM, first compound 0.316 µM", "result": 95.2, "unit": "%"}, {"measurement": "viability, T/C", "setting": "second compound 0.316 µM, first compound 1 µM", "result": 90, "unit": "%"}, {"measurement": "viability, T/C", "setting": "second compound 0.316 µM, first compound 3.16 µM", "result": 92.2, "unit": "%"}, {"measurement": "viability, T/C", "setting": "second compound 0.316 µM, first compound 10 µM", "result": 72.3, "unit": "%"}, {"measurement": "viability, T/C", "setting": "[7]", "result": 86.4, "unit": "%"}, {"measurement": "viability, T/C", "setting": "[8]", "result": 92.3, "unit": "%"}, {"measurement": "viability, T/C", "setting": "second compound 1 µM, first compound 0.316 µM", "result": 90.8, "unit": "%"}, {"measurement": "viability, T/C", "setting": "second compound 1 µM, first compound 1 µM", "result": 77.8, "unit": "%"}, {"measurement": "viability, T/C", "setting": "second compound 1 µM, first compound 3.16 µM", "result": 101, "unit": "%"}, {"measurement": "viability, T/C", "setting": "second compound 1 µM, first compound 10 µM", "result": 74.9, "unit": "%"}, {"measurement": "viability, T/C", "setting": "[9]", "result": 88.1, "unit": "%"}, {"measurement": "viability, T/C", "setting": "[10]", "result": 85, "unit": "%"}, {"measurement": "viability, T/C", "setting": "second compound 3.16 µM, first compound 0.316 µM", "result": 85.4, "unit": "%"}, {"measurement": "viability, T/C", "setting": "second compound 3.16 µM, first compound 1 µM", "result": 94.7, "unit": "%"}, {"measurement": "viability, T/C", "setting": "second compound 3.16 µM, first compound 3.16 µM", "result": 94.9, "unit": "%"}, {"measurement": "viability, T/C", "setting": "second compound 3.16 µM, first compound 10 µM", "result": 68.6, "unit": "%"}, {"measurement": "viability, T/C", "setting": "[11]", "result": 88.8, "unit": "%"}, {"measurement": "viability, T/C", "setting": "[12]", "result": 78.7, "unit": "%"}, {"measurement": "viability, T/C", "setting": "second compound 10 µM, first compound 0.316 µM", "result": 85.5, "unit": "%"}, {"measurement": "viability, T/C", "setting": "second compound 10 µM, first compound 1 µM", "result": 84.2, "unit": "%"}, {"measurement": "viability, T/C", "setting": "second compound 10 µM, first compound 3.16 µM", "result": 101, "unit": "%"}, {"measurement": "viability, T/C", "setting": "second compound 10 µM, first compound 10 µM", "result": 56.2, "unit": "%"}]}
{"smiles": "Cn1ncnc1[C@H]1c2n[nH]c(=O)c3cc(F)cc(c23)N[C@@H]1c1ccc(F)cc1", "note": "+ CC(Nc1ncnc2nc[nH]c12)c1cc2cccc(Cl)c2c(=O)n1-c1ccccc1", "values": [{"measurement": "IC50", "setting": "second compound 0.0316 µM", "result": "> 0.1", "unit": "µM"}, {"measurement": "IC50", "setting": "second compound 0.1 µM", "result": "> 0.1", "unit": "µM"}, {"measurement": "IC50", "setting": "second compound 0.316 µM", "result": "> 0.1", "unit": "µM"}, {"measurement": "IC50", "setting": "second compound 1 µM", "result": "> 0.1", "unit": "µM"}, {"measurement": "IC50", "setting": "second compound 3.16 µM", "result": "> 0.1", "unit": "µM"}, {"measurement": "IC50", "setting": "second compound 10 µM", "result": "> 0.1", "unit": "µM"}, {"measurement": "viability, T/C", "setting": "second compound 0.0316 µM, first compound 0.000316 µM", "result": 97.1, "unit": "%"}, {"measurement": "viability, T/C", "setting": "second compound 0.0316 µM, first compound 0.001 µM", "result": 99.7, "unit": "%"}, {"measurement": "viability, T/C", "setting": "second compound 0.0316 µM, first compound 0.00316 µM", "result": 107, "unit": "%"}, {"measurement": "viability, T/C", "setting": "second compound 0.0316 µM, first compound 0.01 µM", "result": 104, "unit": "%"}, {"measurement": "viability, T/C", "setting": "[1]", "result": 111, "unit": "%"}, {"measurement": "viability, T/C", "setting": "[2]", "result": 94.3, "unit": "%"}, {"measurement": "viability, T/C", "setting": "second compound 0.1 µM, first compound 0.000316 µM", "result": 107, "unit": "%"}, {"measurement": "viability, T/C", "setting": "second compound 0.1 µM, first compound 0.001 µM", "result": 98.4, "unit": "%"}, {"measurement": "viability, T/C", "setting": "second compound 0.1 µM, first compound 0.00316 µM", "result": 96.1, "unit": "%"}, {"measurement": "viability, T/C", "setting": "second compound 0.1 µM, first compound 0.01 µM", "result": 96.3, "unit": "%"}, {"measurement": "viability, T/C", "setting": "[3]", "result": 122, "unit": "%"}, {"measurement": "viability, T/C", "setting": "[4]", "result": 96.4, "unit": "%"}, {"measurement": "viability, T/C", "setting": "second compound 0.316 µM, first compound 0.000316 µM", "result": 93.9, "unit": "%"}, {"measurement": "viability, T/C", "setting": "second compound 0.316 µM, first compound 0.001 µM", "result": 102, "unit": "%"}, {"measurement": "viability, T/C", "setting": "second compound 0.316 µM, first compound 0.00316 µM", "result": 110, "unit": "%"}, {"measurement": "viability, T/C", "setting": "second compound 0.316 µM, first compound 0.01 µM", "result": 100, "unit": "%"}, {"measurement": "viability, T/C", "setting": "[5]", "result": 109, "unit": "%"}, {"measurement": "viability, T/C", "setting": "[6]", "result": 89.8, "unit": "%"}, {"measurement": "viability, T/C", "setting": "second compound 1 µM, first compound 0.000316 µM", "result": 95.1, "unit": "%"}, {"measurement": "viability, T/C", "setting": "second compound 1 µM, first compound 0.001 µM", "result": 94.3, "unit": "%"}, {"measurement": "viability, T/C", "setting": "second compound 1 µM, first compound 0.00316 µM", "result": 103, "unit": "%"}, {"measurement": "viability, T/C", "setting": "second compound 1 µM, first compound 0.01 µM", "result": 96.3, "unit": "%"}, {"measurement": "viability, T/C", "setting": "[7]", "result": 103, "unit": "%"}, {"measurement": "viability, T/C", "setting": "[8]", "result": 95.2, "unit": "%"}, {"measurement": "viability, T/C", "setting": "second compound 3.16 µM, first compound 0.000316 µM", "result": 90.4, "unit": "%"}, {"measurement": "viability, T/C", "setting": "second compound 3.16 µM, first compound 0.001 µM", "result": 109, "unit": "%"}, {"measurement": "viability, T/C", "setting": "second compound 3.16 µM, first compound 0.00316 µM", "result": 94.5, "unit": "%"}, {"measurement": "viability, T/C", "setting": "second compound 3.16 µM, first compound 0.01 µM", "result": 96.3, "unit": "%"}, {"measurement": "viability, T/C", "setting": "[9]", "result": 95.4, "unit": "%"}, {"measurement": "viability, T/C", "setting": "[10]", "result": 94.8, "unit": "%"}, {"measurement": "viability, T/C", "setting": "second compound 10 µM, first compound 0.000316 µM", "result": 90, "unit": "%"}, {"measurement": "viability, T/C", "setting": "second compound 10 µM, first compound 0.001 µM", "result": 90.5, "unit": "%"}, {"measurement": "viability, T/C", "setting": "second compound 10 µM, first compound 0.00316 µM", "result": 96.8, "unit": "%"}, {"measurement": "viability, T/C", "setting": "second compound 10 µM, first compound 0.01 µM", "result": 81.5, "unit": "%"}, {"measurement": "viability, T/C", "setting": "[11]", "result": 94.6, "unit": "%"}, {"measurement": "viability, T/C", "setting": "[12]", "result": 77.8, "unit": "%"}]}
